Test results from patent publication US10563263B2, “Genetic polymorphisms associated with statin response and cardiovascular diseases, methods of detection and uses thereof” (CELERA CORPORATION, priority 2010, dated 2020).

Tested on: CVD (CHD or stroke)
Assay: WOSCOPS: SNP by pravastatin treatment interaction, logistic regression (synergy index), CVD endpoint
Type: in vivo, human
Details: for OR (SNP x pravastatin treatment interaction): Imputed, WOSCOPS pravastatin vs placebo; for OR: WOSCOPS
From the text: CARE was a secondary prevention trial and WOSCOPS was a primary prevention trial.
The CHD endpoint was defined in the analyses herein of CARE as a composite endpoint of fatal CHD, definite non-fatal MI, or revascularization, and was defined in the analyses herein of WOSCOPS as a composite endpoint of death from CHD, nonfatal MI, or revascularization. In both the CARE and WOSCOPS analyses herein, the CVD endpoint was defined as a composite endpoint of CHD or stroke. […] Revascularization, which can include percutaneous transluminal coronary angioplasty (PTCA), stent placement, and coronary artery bypass graft (CABG), are medical interventions that indicate the presence of CHD.
Cohort and case-only study designs were used to identify SNPs associated with response to statin treatment.
For each SNP, a logistic regression model having treatment status as the dependent variable and SNP as the independent predictor variable was performed, with terms for age, sex and race included in the model as covariates. The anti-log of the regression coefficient corresponding to the SNP is an estimate of the synergy index (SI) (Davis et al., “Imputing gene-treatment interactions when the genotype distribution is unknown using case-only and putative placebo analyses-a new method for the Genetics of Hypertension Associated Treatment (GenHAT) study”, Statistics in Medicine 23: (2004), pages 2413-2427). The SI is a ratio of odds ratios: for example in the CARE and WOSCOPS studies, the SI represents the factor by which the odds-ratio of statin treatment, compared with placebo, among major homozygous individuals is multiplied by in order to obtain the odds-ratio of treatment vs. placebo among heterozygous individuals; and multiplied by a second time to obtain the odds-ratio of treatment vs. placebo in minor homozygous individuals. […] In a randomized clinical trial, genotype and treatment are independent by design.

With `CC[C@H](C)C(=O)O[C@H]1C[C@H](O)C=C2C=C[C@H](C)[C@H](CC[C@@H](O)C[C@@H](O)CC(=O)O)[C@H]21` [Pravastatin, pravastatin] the “OR (SNP x pravastatin treatment interaction)” value (SNP rs12820589, allele A1=G, model DOM) was 1.936, the “OR (SNP x pravastatin treatment interaction)” value (SNP rs12831292, allele A1=G, model ADD) was 0.6841 and the “OR (SNP x pravastatin treatment interaction)” value (SNP rs12831292, allele A1=G, model DOM) was 0.62. For the same compound, the “OR (SNP x pravastatin treatment interaction)” value (SNP rs13012636, allele A1=G, model REC) was 1.901, the “OR (SNP x pravastatin treatment interaction)” value (SNP rs13038146, allele A1=C, model ADD) was 1.407 and the “OR (SNP x pravastatin treatment interaction)” value (SNP rs13038146, allele A1=C, model REC) was 1.414. The “OR (SNP x pravastatin treatment interaction)” value (SNP rs13089860, allele A1=A, model DOM) was 0.6221, the “OR (SNP x pravastatin treatment interaction)” value (SNP rs13102419, allele A1=T, model REC) was 1.668 and the “OR (synergy index), WOSCOPS, Prava vs Placebo” value (SNP rs13121569 (A1 G, A2 A), dom model, CVD endpoint, Caseonly) was 0.78. For the same compound, the “OR (SNP x pravastatin treatment interaction)” value (SNP rs13194907, allele A1=A, model ADD) was 1.964, the “OR (SNP x pravastatin treatment interaction)” value (SNP rs13194907, allele A1=A, model DOM) was 2.136 and the “OR (SNP x pravastatin treatment interaction)” value (SNP rs13195745, allele A1=A, model ADD) was 1.964. The “OR (SNP x pravastatin treatment interaction)” value (SNP rs13195745, allele A1=A, model DOM) was 2.136, the “OR (SNP x pravastatin treatment interaction)” value (SNP rs13265054, allele A1=T, model DOM) was 0.6754 and the “OR (SNP x pravastatin treatment interaction)” value (SNP rs13282131, allele A1=C, model ADD) was 1.415. The “OR (SNP x pravastatin treatment interaction)” value (SNP rs13282131, allele A1=C, model REC) was 1.595, the “OR (SNP x pravastatin treatment interaction)” value (SNP rs13387284, allele A1=A, model DOM) was 0.5278 and the “OR (SNP x pravastatin treatment interaction)” value (SNP rs13401462, allele A1=C, model DOM) was 2.137. The “OR (SNP x pravastatin treatment interaction)” value (SNP rs13409045, allele A1=T, model ADD) was 0.6931, the OR (marker rs208025, source caseonly, pravastatin vs placebo) was 1.52 and the OR (marker rs478859, source caseonly, pravastatin vs placebo) was 1.33. The OR (marker rs623400, source caseonly, pravastatin vs placebo) was 0.62, the OR (marker rs675163, source caseonly, pravastatin vs placebo) was 0.71 and the OR (marker rs1536506, source caseonly, pravastatin vs placebo) was 1.43. The OR (marker rs1866386, source caseonly, pravastatin vs placebo) was 0.81, the OR (marker rs2869680, source caseonly, pravastatin vs placebo) was 0.70 and the OR (marker rs2880563, source caseonly, pravastatin vs placebo) was 1.51. For the same compound, the OR (marker rs4251580, source caseonly, pravastatin vs placebo) was 0.55, the OR (marker rs4689078, source caseonly, pravastatin vs placebo) was 1.45 and the OR (marker rs5764592, source caseonly, pravastatin vs placebo) was 1.87. It also gave an OR (marker rs6040760, source caseonly, pravastatin vs placebo) of 1.23, an OR (marker rs7623808, source caseonly, pravastatin vs placebo) of 4.22 and an OR (marker rs7915250, source caseonly, pravastatin vs placebo) of 0.81. It also gave an OR (marker rs10106852, source caseonly, pravastatin vs placebo) of 1.56, an OR (marker rs10460737, source caseonly, pravastatin vs placebo) of 0.10 and an OR (marker rs10817479, source caseonly, pravastatin vs placebo) of 1.37. The OR (marker rs12286877, source caseonly, pravastatin vs placebo) was 2.30, the OR (marker rs12608167, source caseonly, pravastatin vs placebo) was 0.66 and the OR (marker rs17310169, source caseonly, pravastatin vs placebo) was 0.81. It also gave an OR (marker rs77638540, source caseonly, pravastatin vs placebo) of 0.68, an OR (rs198461 allele C DOM Imputed) of 0.4755 and an OR (rs208757 allele G ADD Imputed) of 1.353. For the same compound, the OR (rs208757 allele G DOM Imputed) was 1.453, the OR (rs331555, add, Caseonly, CVD, pravastatin vs placebo) was 0.77 and the OR (rs1076733, dom, Caseonly, CVD, pravastatin vs placebo) was 0.62. It also gave an OR (rs1182878, add, Caseonly, CVD, pravastatin vs placebo) of 0.75, an OR (rs1474396, dom, Caseonly, CVD, pravastatin vs placebo) of 1.73 and an OR (rs1782328 allele A ADD Imputed) of 0.5789. For the same compound, the OR (rs1796337 allele T DOM Imputed) was 0.5422, the OR (rs1798083 allele C DOM Imputed) was 0.4733 and the OR (rs1798085 allele T DOM Imputed) was 0.4727. The OR (rs1798086 allele T DOM Imputed) was 0.4689, the OR (rs1798089 allele C REC Imputed) was 1.806 and the OR (rs1798090 allele C REC Imputed) was 1.806. For the same compound, the OR (rs1832222 allele G DOM Imputed) was 1.351, the OR (rs1838104 allele A ADD Imputed) was 0.6393 and the OR (rs1868616 allele G ADD Imputed) was 0.7123. The OR (rs1874313 allele A DOM Imputed) was 0.6182.
